# Key:
# [1] = test system: rat model of adjuvant arthritis; experiment: Rat adjuvant arthritis, oral NC-2300 compared with alendronate; format: in vivo; conditions: for bone erosion in the ankle (radiological analysis): administered daily day 0 to day 35, soft X-rays of ankle joints day 36
# Description: Rats were injected with complete Freund's adjuvant on day 0.
# Bone mineral density of the proximal tibia assessed by pQCT (day 36).
# Assessment for hind paws of adjuvant arthritis rats treated with NC-2300 or vehicle.
# Adjuvant arthritis in hind paw administered with NC-2300 or vehicle was evaluated.
# TLR3 = experiment: Cytokine mRNA expression in poly(I:C)-treated DCs derived from mouse spleen; format: cell-based; conditions: poly(I:C) (TLR3 ligand)-treated mouse spleen DCs, total RNA 3 hours after stimulation
# Description: (§1) Quantitative RT-PCR was performed as described in K. Sato et al., Nat Med 12, 1410 (2006). The following primers were used.
# (§2) Spleens were excised from male mice of 8 to 10 weeks. Dendritic cells (DCs) were separated from the spleens using pan DC microbeads (Miltenyi Biotec, Bergisch Gladbach, Germany), according to the manufacturer's instructions.
# (§3) Total RNA was extracted 3 hours after stimulation.
# TLR7, 8 = experiment: Cytokine mRNA expression in R837-treated DCs derived from mouse spleen; format: cell-based; conditions: R837 (TLR7, 8 ligand)-treated mouse spleen DCs, total RNA 3 hours after stimulation
# Description: as §1, §2, §3
# cathepsin K = target: T1, cathepsin K (Mus musculus, UniProt P55097); experiment: Enzymatic activity of cathepsin K in BM-DCs (substrate Z-Gly-Pro-Arg-MCA); format: cell-based; conditions: BM-DCs pre-treated 24 hours, cell lysates
# T1 construct: cell lysates were subjected to enzymatic assay; endogenous in cells; host or cells: bone marrow-derived dendritic cells (BM-DCs): cells pre-treated with NC-2300, then lysed
# T1 sequence (P55097 115-329): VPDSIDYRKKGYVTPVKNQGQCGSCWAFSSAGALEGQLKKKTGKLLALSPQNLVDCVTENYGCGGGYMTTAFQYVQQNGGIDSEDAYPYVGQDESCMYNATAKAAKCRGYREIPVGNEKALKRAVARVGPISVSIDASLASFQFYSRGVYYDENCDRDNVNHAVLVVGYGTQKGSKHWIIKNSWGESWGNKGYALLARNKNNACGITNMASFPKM
# Description: BM-DCs were pre-treated with or without the cathepsin K inhibitor NC-2300 for 24 hours and washed extensively with cold phosphate-buffered saline (PBS), and cell lysates were subjected to enzymatic assay. Cathepsin K activity was measured with cathepsin K specific substrate, Z-Gly-Pro-Arg-MCA (GPR).
# Th17 cells = experiment: Th17 cell induction by splenic DCs cocultured with CD4+ T cells (intracellular staining of IL-17); format: cell-based, mouse; conditions: 3 days coculture
# Description: (§4) Before staining, cells were incubated with mouse BD Fc Block to minimize nonspecific staining. The cells were then stained with fluorophore-conjugated monoclonal Abs. The following fluorophore-conjugated mAbs were used; Allophycocyanin (APC)-conjugated anti-CD3e (145-2C11), fluorescein isothiocyanate (FITC)-conjugated anti-CD4 (RM4-5), CD11c (HL3), CD40 (3/23), CD80 (16-10Al), CD86 (GL1), I-A^d (AMS-32.1), and Phycoerythrin (PE)-conjugated anti-mouse IL-17 (TC11-18H10). For intracellular cytokine staining, cells were collected and left unstimulated or were stimulated for 5 hours with PMA (40 ng ml^−1) and ion-omycin (4 μg ml^−1) in the presence of GolgiPlug at the recommended concentration. Standard intracellular cytokine staining was performed as follows; cells were first stained extracellularly with APC-conjugated anti-CD3 and FITC-conjugated anti-CD4 mAbs, then were fixed and permeabilized with Cytofix/Cytoperm solution, and finally were stained intracellularly with PE-conjugated anti-IL-17 mAb. Flowcytometric analysis was performed by FACScan with CellQuest software or FACSCanto II with Diva software.
# CD4-positive T cells and splenic DCs were isolated from the spleen using a magnetic sorter and anti-CD4 microbeads. These cells were stimulated with plate-bound anti-CD3 and anti-CD28 mAbs (1 μg ml^−1 each) for 3 days in the presence of 2 ng ml^−1 human TGF-β, 10 μg ml^−1 each of anti-IFN-γ and anti-IL-4 mAbs, with or without CpG ODN, LPS or PGN.
# Cathepsin K inactivation results in defective Th17 polarization in response to CpG, but not LPS or PGN were measured. CD4^+T cells and DCs were sorted from the spleen, and cocultured in the presence of CpG, LPS, or PGN for 3 days. After the culture, percentages of CD3e^+CD4^+IL-17^+ cells were analyzed by flowcytometry.
# BM-derived macrophages = experiment: Activation of BM-derived macrophages stimulated by PAMPs; format: cell-based, mouse
# Description: (§5) Immature DCs were generated from mouse BM, as described in K. Inaba et al., J. Exp. Med. 176,1693 (1992). In brief, BM cells were cultured with 10 ng ml^−1 murine GM-CSF or 10 ng ml^−1 murine Flt3L in RPMI 1640 medium supplemented with 10% FBS for 6 days. Loosely adherent cells were harvested by gentle pipetting and were used as BM-derived DCs. To obtain BM-derived macrophages, BM cells were cultured with 10 ng ml^−1 M-CSF in α-MEM medium supplemented with 10% FBS for 2 days, and adherent cells were used as BM-derived macrophages. For the pathogen-associated molecular pattern (PAMP) stimulation, cells were plated at 5×10^5 cells ml^−1 in 24-well plates, and cultured with 10 ng ml^−1 Lipopolysaccharide (LPS), 30 μg ml^−1 Peptidoglycan Type I (PGN), or Endotoxin-free phosphorothioate-stabilized CpG oligodeoxynucleotides (CpG ODN).
# (§6) Cells were cultured for 3-24 hours with or without PAMPs or plate-bound anti-CD3/CD28 antibodies in the presence or absence of NC-2300, and concentration of cytokines in the culture supernatant was determined by ELISA kits, according to the manufacturer's instructions.
# BM-DCs = experiment: In vitro development of BM-DCs; format: cell-based, mouse
# Description: as §5
# [2] = test system: T cells stimulated with anti-CD3/CD28 antibodies; experiment: IL-2 production of T cells stimulated with anti-CD3/CD28 antibodies (ELISA); format: cell-based, mouse
# Description: as §6
# [3] = test system: T cells stimulated with anti-CD3/CD28 antibodies; experiment: Cell proliferation assay of T cells stimulated with anti-CD3/CD28 antibodies; format: cell-based, mouse
# Description: Cell proliferation was evaluated by using a Cell Proliferation ELISA kit according to the manufacturer's protocol.
# [4] = test system: extracellular-signal regulated kinases 1/2 (ERK 1/2); experiment: ERK 1/2 phosphorylation in stimulated DCs (immunoblot); format: cell-based, mouse; conditions: CpG-induced
# Description: DCs were cultured in low serum medium (0.1% FBS) for 4 hours to reduce background and then stimulated with CpG ODN or LPS in the presence or absence of NC-2300. The stimulated cells were subjected to immunoblot analyses as described in K. Sato et al., Nat Med12, 1410 (2006), using Abs for ERK-1/2, phosphorylated ERK-1/2 and β-actin.
# CD40, CD80 and CD86 = experiment: TLR9-mediated expression of cell surface molecules in DCs (flowcytometry); format: cell-based, mouse; conditions: stimulated 48 hours
# Description: as §4
# DCs were stimulated with CpG or LPS for 48 hours and analyzed by flowcytometry.
# TLR9 [5] = experiment: CpG-stimulated cytokine production by BM-DCs (ELISA); format: cell-based, mouse; conditions: CpG (TLR9 ligand), 24 hours
# Description: as §5, §6
# BM-DCs were stimulated with peptidoglycan (PGN), lipopolysaccharide (LPS), and unmethylated CpG oligodeoxynucleotides (CpG) for 24 hours and the culture super-natants were subjected to ELISA. *P<0.05, ***P<0.001 (versus control).
# TLR9 [6] = experiment: Cytokine mRNA expression in CpG-treated BM-DCs (quantitative RT-PCR); format: cell-based, mouse
# Description: as §1
# The level of mRNA expression was normalized with that of β-actin expression.
# BM-DCs were generated by either GM-CSF or Flt3L. Total RNA was extracted 6 hours after CpG stimulation.
# cathepsin K−/− DCs = experiment: Cytokine production in WT or cathepsin K−/− DCs in response to LPS or CpG, with chloroquine; format: cell-based, mouse; conditions: chloroquine added 1 hour before the stimulation; cytokines IL-12 and IL-6
# Description: as §6
# Cytokine production in WT or cathepsin K^−/− DCs in response to LPS or CpG was measured. Chloroquine was added 1 hour before the stimulation to suppress endosomal acidification. N.D., not detected. *P<0.05, ***P<0.001 (versus WT).
# [7] = arthritic rats, high dose treatment, day 35
# [8] = BM-DCs, total RNA 6 hours after CpG stimulation
smiles,measurement,setting,value
"NCCCC(O)(P(=O)(O)O)P(=O)(O)O [alendronate, reference compound]",bone erosion in the ankle (radiological analysis),[1]; rat adjuvant arthritis,did not efficiently suppress bone erosion
"CCOC(=O)[C@H]1O[C@@H]1C(=O)N[C@@H](CC(C)C)C(=O)NCCC(C)C [E64d, reference compound]",cytokine mRNA expression (IFN-1),TLR3,suppressed
same,cytokine mRNA expression (IFN-1),"TLR7, 8",suppressed
"CC(C)COC[C@H](CC(C)C)NC(=O)[C@H]1O[C@@H]1C(=O)[O-].[Na+] [NC-2300, monosodium (2S,3S)-3-[[(1S)-1-isobutoxymethyl-3-methylbutyl]carbamoyl]oxirane-2-carboxylate]",cytokine mRNA expression (IFN-1),TLR3,suppressed
same,cathepsin K activity in DCs,cathepsin K,inhibited by NC-2300 in a dose-dependent manner
same,ability of DCs to induce Th17 cells,Th17 cells; DCs stimulated with CpG,markedly inhibited
same,ability of DCs to induce Th17 cells,Th17 cells; DCs stimulated with LPS,only when DCs were stimulated with CpG
same,ability of DCs to induce Th17 cells,Th17 cells; DCs stimulated with PGN,only when DCs were stimulated with CpG
same,activation of BM-derived macrophages,BM-derived macrophages,no significant effects
same,in vitro development of BM-DCs,BM-DCs,no effects
same,IL-2 production of T cells,[2],no effect
same,proliferation of T cells,[3],no effect
same,phosphorylation of ERK 1/2 in DCs,[4],Suppression
same,expression of CD40 in DCs,"CD40, CD80 and CD86",reduced expression
same,expression of CD80 in DCs,"CD40, CD80 and CD86",reduced expression
same,expression of CD86 in DCs,"CD40, CD80 and CD86",reduced expression
same,locomotion activity: arthritis-induced incapacitation of rearing behavior,[1]; [7],significantly ameliorated the arthritis-induced incapacitation of rearing behavior
same,locomotion activity: severity of the hind limb lameness,[1]; [7],reduced the severity of the hind limb lameness
same,onset rate of arthritis,[1]; rat adjuvant arthritis,without affecting the onset rate of arthritis
same,paw swelling in the course of arthritis,"[1]; rat adjuvant arthritis, hind paws",ameliorated paw swelling
same,inflammation when administered after the onset of disease,"[1]; rat adjuvant arthritis, administered after the onset of disease",ameliorated inflammation
same,bone erosion in the ankle (radiological analysis),[1]; rat adjuvant arthritis,markedly suppressed bone erosion
same,periarticular osteoporosis in the proximal tibia (bone mineral density),"[1]; rat adjuvant arthritis, pQCT day 36",comparable inhibitory effect
same,production of IL-12 by DCs,TLR9 [5],significantly inhibited
same,production of IL-23 by DCs,TLR9 [5],significantly inhibited
same,cytokine mRNA expression (IFN-1),"TLR7, 8",suppressed
same,CpG-induced expression of IL-6 at the mRNA level,TLR9 [6]; [8],downregulated
same,CpG-induced expression of IL-12 at the mRNA level,TLR9 [6]; [8],downregulated
same,CpG-induced expression of IL-23 at the mRNA level,TLR9 [6]; [8],downregulated
same,IFN production by Flt3L-induced DCs in response to CpG,"TLR9 [6]; Flt3L-induced DCs, CpG",suppressed
CCN(CC)CCCC(C)Nc1ccnc2cc(Cl)ccc12 (stereo not shown) [chloroquine],cytokine induction in cathepsin K−/− DCs,cathepsin K−/− DCs,further suppressed
